From US10442804B2, “Compounds for the treatment of hepatitis B virus infection” (Gilead Sciences, Inc., priority 2017, dated 2019)
pEC50: −log10 of the molar value.

Columns and labels:
MT-4 cytotoxicity assay = type: cell-based, human; settings: human, five days, Cell Titer Glo luminescence; read-out: MT-4 CC50
Description: Biological Example 2: MT-4 Cytotoxicity Assay
The MT-4 cell line (HTLV-1 transformed, human T lymphoblastoid cells) was obtained from the NIH AIDS Reagent program (Bethesda, Md.). MT-4 cells were maintained in RPMI-1640 media (Thermo Fisher Scientific, Waltham, Mass.) supplemented with 10% fetal bovine serum, 100 Units/mL penicillin, and 100 μg/mL streptomycin. For the MT-4 cytotoxicity assay, 0.4 μL of serially diluted solutions of certain compounds disclosed herein were added to 40 μL of cell maintenance media in 384-well black, solid bottom plate using a Biomek FX workstation (Beckman Coulter, Brea, Calif.). Two thousand cells in 35 μL were added to each well using a Biotek uFlow Workstation (Biotek, Winooski, Vt.). Each assay plate contained 10 μM puromycin (final concentration) and 0.5% DMSO in RPMI-1640 media as positive and negative controls, respectively. Assay plates were incubated for five days at 37° C. in an incubator set at 5% CO2 and 90% humidity. After five days, 22 μL of Cell Titer Glo reagent (Promega, Madison, Wis.) was added to the assay plates with a Biotek uFlow Workstation. Plates were subsequently placed on an Envision Plate Reader (Perkin Elmer, Waltham, Mass.) for five minutes before the luminescence signal was read. CC50 values were defined as the compound concentration that caused a 50% decrease in luminescence signal, and were calculated by non-linear regression using Pipeline Pilot software by applying a four parameter fit equation (Accelrys, San Diego, Calif.) and are reported in the following Table 1.

[1] = system: HBV-infected NTCP-HepG2 cells, secreted HBsAg; test: microbe, parasite or virus in culture; type: cell-based, hepatitis B virus (genotype D, AD38-derived); settings: Hepatitis B virus, 120 h, secreted HBsAg in supernatant after 5 days; geometric mean of minimum four determinations; read-out: NTCP HBsAg EC50
Description: NTCP-HepG2 Antiviral Assay for Secreted HBsAg
HepG2 cells stably expressing sodium-taurocholate cotransporting polypeptide (NTCP-HepG2) were grown in Dulbecco's Modified Eagle Medium (DMEM) without sodium pyruvate (Thermo Fisher Scientific, Waltham, Mass.) supplemented with 10% fetal bovine serum, 2 mM L-glutamine, 1% penicillin/streptomycin, and 0.25 mg/mL G-418. NTCP-HepG2 cells were infected with 4000 genome equivalent per cell of genotype D (AD38-derived) HBV in DMEM without sodium pyruvate (Thermo Fisher Scientific, Waltham, Mass.) supplemented with 2% fetal bovine serum, 2 mM L-glutamine, 1% penicillin/streptomycin, 2.5% DMSO, and 4% PEG 8000 (Promega, Madison, Wis.). After 24-hour incubation, cells were washed three times with OptiMEM (Thermo Fisher Scientific, Waltham, Mass.) and fed with fresh DMEM without sodium pyruvate (Thermo Fisher Scientific, Waltham, Mass.) supplemented with 2% fetal bovine serum, 2 mM L-glutamine, 1% penicillin/streptomycin, and 2.5% DMSO. At 4 days after infection, infected NTCP-HepG2 cells were seeded on 384-well plates pre-coated with collagen at a density of 20000 cells per well containing serially diluted compounds of the present disclosure or DMSO (0.5%) in a final volume of 80 μl of DMEM without sodium pyruvate (Thermo Fisher Scientific, Waltham, Mass.) supplemented with 2% fetal bovine serum, 2 mM L-glutamine, 1% penicillin/streptomycin, and 1% DMSO. After an incubation time of 5 days, cell culture supernatant was collected and measured for HBsAg.
Secreted HBsAg in the supernatant were measured using a multiplex chemiluminescent MSD assay (Meso Scale Discovery, Rockville, Md.) using capture and detection antibody pairs specific for HBsAg. The EC50 values were calculated from the fit of the dose-response curves to a four-parameter equation. All EC50 values represent geometric mean values of a minimum of four determinations.

SMILES | CC50 at 5 days (MT-4 cytotoxicity assay) [µM] | pEC50 [1]
CC1(C)CC[C@@H]2c3cc(OCCn4nc5ccccn5c4=O)c(OC(F)(F)F)cc3-c3cc(=O)c(C(=O)O)cn3N21 [Example 91, (R)-3,3-dimethyl-8-oxo-12-(2-(3-oxo-[1,2,4]triazolo[4,3-a]pyridin-2(3H)-yl)ethoxy)-11-(trifluoromethoxy)-2,3,8,13b-tetrahydro-H-pyrido[2,1-a]pyrrolo[1,2-c]phthalazine-7-carboxylic acid] | > 10 | 8.52
COC(C)(C)C#Cc1cc2c(cc1C1CC1)-c1cc(=O)c(C(=O)O)cn1N1[C@@H]2CCC1(C)C [Example 72, (R)-11-cyclopropyl-12-(3-methoxy-3-methylbut-1-yn-1-yl)-3,3-dimethyl-8-oxo-2,3,8,13b-tetrahydro-1H-pyrido[2,1-a]pyrrolo[1,2-c]phthalazine-7-carboxylic acid] | 6.4 | 9.02
COCCCOc1cc2c(cc1Cl)-c1cc(=O)c(C(=O)O)cn1N1CC(C)(C)CCC21 (centres unmarked) [Example 17, 13-chloro-12-(3-methoxypropoxy)-8,8-dimethyl-2-oxo-2,7,8,9,10,10a-hexahydrodipyrido[2,1-a:1′,2′-c]phthalazine-3-carboxylic acid] | > 10 | 6.96
COc1cc2c(cc1OCCCOCC(F)(F)F)[C@H]1CCC(C)(C)N1n1cc(C(=O)O)c(=O)cc1-2 [Example 60, (R)-11-methoxy-3,3-dimethyl-8-oxo-12-(3-(2,2,2-trifluoroethoxy)propoxy)-2,3,8,13b-tetrahydro-1H-pyrido[2,1-a]pyrrolo[1,2-c]phthalazine-7-carboxylic acid] | > 10 | 8.92
COCc1cc2c(cc1OCCCOC(=O)NC1(C(F)F)CC1)[C@H]1CCC(C)(C)N1n1cc(C(=O)O)c(=O)cc1-2 [Example 88, (R)-12-(3-(((1-(Difluoromethyl)cyclopropyl)carbamoyl)oxy)propoxy)-11-(methoxymethyl)-3,3-dimethyl-8-oxo-2,3,8,13b-tetrahydro-H-pyrido[2,1-a]pyrrolo[1,2-c]phthalazine-7-carboxylic acid] | > 10 | 8.27
COCc1cc2c(cc1C#CC(C)(C)O)[C@H]1CCC(C)(C)N1n1cc(C(=O)O)c(=O)cc1-2 [Example 70, (R)-12-(3-hydroxy-3-methylbut-1-yn-1-yl)-11-(methoxymethyl)-3,3-dimethyl-8-oxo-2,3,8,13b-tetrahydro-1H-pyrido[2,1-a]pyrrolo[1,2-c]phthalazine-7-carboxylic acid] | > 10 | 7.68
COCCCOc1cc2c(cc1Cl)-c1cc(=O)c(C(=O)O)cn1N1CCCC21 (centres unmarked) [Example 1, 11-chloro-12-(3-methoxypropoxy)-8-oxo-2,3,8,13b-tetrahydro-1H-pyrido[2,1-a]pyrrolo[1,2-c]phthalazine-7-carboxylic acid] | 8 | 7.05
CC1(C)CC[C@@H]2c3cc(OCC45CC(C#N)(C4)C5)c(C4CC4)cc3-c3cc(=O)c(C(=O)O)cn3N21 [Example 99, (R)-12-((3-cyanobicyclo[1.1.1]pentan-1-yl)methoxy)-11-cyclopropyl-3,3-dimethyl-8-oxo-2,3,8,13b-tetrahydro-1H-pyrido[2,1-a]pyrrolo[1,2-c]phthalazine-7-carboxylic acid] | 3.6 | 9.18
CC1(C)CC[C@@H]2c3cc(OCCCOC(F)(F)F)c(Cl)cc3-c3cc(=O)c(C(=O)O)cn3N21 [Example 55, (R)-11-chloro-3,3-dimethyl-8-oxo-12-(3-(trifluoromethoxy)propoxy)-2,3,8,13b-tetrahydro-1H-pyrido[2,1-a]pyrrolo[1,2-c]phthalazine-7-carboxylic acid] | 6.8 | 8.43
COc1cc2c(cc1C#CC(C)(C)S(=O)(=O)C1CC1)[C@H]1CCC(C)(C)N1n1cc(C(=O)O)c(=O)cc1-2 [Example 84, (R)-12-(3-(cyclopropylsulfonyl)-3-methylbut-1-yn-1-yl)-11-methoxy-3,3-dimethyl-8-oxo-2,3,8,13b-tetrahydro-1H-pyrido[2,1-a]pyrrolo[1,2-c]phthalazine-7-carboxylic acid] | > 10 | 7.95
